According to ChEMBL document CHEMBL3616475 (Bioorg Med Chem, 2015):
Active and inactive are the calls of the source. No cut-off for these calls is given here.

What was measured:
Rattus norvegicus [1] = species: Rattus norvegicus; experiment: Selectivity ratio of Ki for Adenosine A2A receptor in Sprague-Dawley rat striatal membranes to Ki for Adenosine A1 receptor in Sprague-Dawley rat whole brain membranes
Adenosine receptor A2a [2] = biological target: T1, Adenosine receptor A2a (Rattus norvegicus, UniProt P30543); experiment: Displacement of [3H]-NECA from Adenosine A2A receptor in Sprague-Dawley rat striatal membranes; parameters: species or system Striatum, Membrane
Adenosine receptor A1 [3] = biological target: T2, Adenosine receptor A1 (Rattus norvegicus, UniProt P25099); experiment: Displacement of [3H]-DPCPX from Adenosine A1 receptor in Sprague-Dawley rat whole brain membranes; parameters: species or system Membrane
T2 sequence (P25099 whole entry): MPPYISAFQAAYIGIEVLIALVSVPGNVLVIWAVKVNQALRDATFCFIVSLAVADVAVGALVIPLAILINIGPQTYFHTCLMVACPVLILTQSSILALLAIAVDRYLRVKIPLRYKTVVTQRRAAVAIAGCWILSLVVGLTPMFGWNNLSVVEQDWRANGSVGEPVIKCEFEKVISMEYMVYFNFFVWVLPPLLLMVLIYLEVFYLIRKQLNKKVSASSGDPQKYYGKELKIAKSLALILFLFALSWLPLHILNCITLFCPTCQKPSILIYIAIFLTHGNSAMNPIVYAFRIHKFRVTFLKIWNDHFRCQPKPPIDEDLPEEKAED

Adenosine receptor A1 [4] = biological target: T2, Adenosine receptor A1
Description: Displacement of [3H]-DPCPX from Adenosine A1 receptor in Sprague-Dawley rat brain cortical membranes in presence of 0.1 mM GTP

Adenosine receptor A1 [5] = biological target: T2, Adenosine receptor A1; remark: listed apart in the source
Description: Displacement of [3H]-DPCPX from Adenosine A1 receptor in Sprague-Dawley rat whole brain membranes in absence of GTP

Adenosine receptor A1 [6] = biological target: T2, Adenosine receptor A1; remark: listed apart in the source
Description: Displacement of [3H]-DPCPX from Adenosine A1 receptor in Sprague-Dawley rat brain cortical membranes in absence of GTP

Adenosine receptor A1 [7] = biological target: T2, Adenosine receptor A1; remark: listed apart in the source
Description: Displacement of [3H]-DPCPX from Adenosine A1 receptor in Sprague-Dawley rat whole brain membranes in presence of 0.1 mM GTP

Adenosine receptor A2a [8] = biological target: T1, Adenosine receptor A2a; experiment: Binding affinity to Adenosine A2A receptor in rat brain tissue by radioligand displacement assay; type: tissue-based
Rattus norvegicus [9] = experiment: Inhibition of CPA-induced hypolocomotion in Sprague-Dawley rat at 0.06 to […], ip administered 25 mins prior to CPA addition measured for 20 mins starting from 5 mins post habituation
Rattus norvegicus [10] = experiment: Inhibition of CPA-induced hypolocomotion in Sprague-Dawley rat at 0.03 to 0.1 mg/kg, ip administered 25 mins prior to CPA addition measured for 20 mins starting from 5 mins post habituation; type: functional, organism-based

T1 sequence (P30543 whole entry): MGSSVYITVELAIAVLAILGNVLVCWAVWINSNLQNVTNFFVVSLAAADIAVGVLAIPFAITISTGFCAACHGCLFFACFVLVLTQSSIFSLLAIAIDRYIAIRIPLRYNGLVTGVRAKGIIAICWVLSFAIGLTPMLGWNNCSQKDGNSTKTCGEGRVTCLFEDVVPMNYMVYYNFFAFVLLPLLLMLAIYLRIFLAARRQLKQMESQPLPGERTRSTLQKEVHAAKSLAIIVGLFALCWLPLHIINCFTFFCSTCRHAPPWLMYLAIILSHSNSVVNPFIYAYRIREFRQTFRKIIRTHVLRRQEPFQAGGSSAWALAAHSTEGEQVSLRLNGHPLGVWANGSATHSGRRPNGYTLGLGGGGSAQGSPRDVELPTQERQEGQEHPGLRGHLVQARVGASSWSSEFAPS

Row | SMILES | Ratio Ki (Rattus norvegicus [1]) | Ki (Adenosine receptor A2a [2]) [nM] | Ki (Adenosine receptor A1 [3]) [nM] | other results
1 | CCn1c(CCCc2ccccc2)nc2c1c(=O)n(C)c(=O)n2C | 19 | 4930 | 259 | 
2 | CCn1c(=O)c2c(nc(CCCc3ccccc3)n2C)n(CC)c1=O | 3 | 3930 | 1240 | 
3 | CCn1c(=O)c2c(nc(COc3ccccc3)n2C)n(CC)c1=O | 2 | 1910 | 874 | 
4 | CCn1c(=O)c2c(nc(COc3ccccc3)n2CC)n(CC)c1=O | 6 | 2640 | 416 | Ki (Adenosine receptor A1 [4]): 368 nM; Ki (Adenosine receptor A1 [5]): 416 nM; Ki (Adenosine receptor A1 [6]): 356 nM; Ki (Adenosine receptor A1 [7]): 397 nM
5 | CCn1c(CCc2ccccc2)nc2c1c(=O)n(C)c(=O)n2C | 3 | 3110 | 1090 | 
6 | Cn1c(=O)c2c(nc(-c3ccccc3)n2C)n(C)c1=O |  |  |  | Ki (Adenosine receptor A2a [8]): 27000 nM
7 | Cn1c(=O)c2c(nc(CCc3ccccc3)n2C)n(C)c1=O | 0.86 | 4950 | 5740 | 
8 | Cn1c(=O)c2c(nc(CCCc3ccccc3)n2C)n(C)c1=O | 4 | 6800 | 1550 | 
9 | CCn1c(=O)c2c(nc(CCCc3ccccc3)n2CC)n(CC)c1=O | 17 | 2710 | 164 | Ki (Adenosine receptor A1 [4]): 258 nM; Ki (Adenosine receptor A1 [5]): 164 nM; inhibition (Rattus norvegicus [9]): Active; Ki (Adenosine receptor A1 [6]): 139 nM; Ki (Adenosine receptor A1 [7]): 209 nM
10 | CCCn1c(=O)c2[nH]c(C3CCCC3)nc2n(CCC)c1=O |  |  |  | inhibition (Rattus norvegicus [10]): Active
11 | CCn1c(=O)c2c(nc(CCc3ccccc3)n2C)n(CC)c1=O | 3 | 2360 | 816 | 
12 | CCn1c(=O)c2c(nc(CCc3ccccc3)n2CC)n(CC)c1=O | 8 | 4970 | 636 | Ki (Adenosine receptor A1 [4]): 681 nM; Ki (Adenosine receptor A1 [5]): 636 nM; Ki (Adenosine receptor A1 [6]): 543 nM; Ki (Adenosine receptor A1 [7]): 763 nM
13 | CCn1c(COc2ccccc2)nc2c1c(=O)n(C)c(=O)n2C | 2 | 2250 | 1100 | 
14 | Cn1c(=O)c2c(nc(COc3ccccc3)n2C)n(C)c1=O | 0.77 | 2370 | 3090 | 
15 | OC[C@H]1O[C@@H](n2cnc3c(NC4CCCC4)ncnc32)[C@H](O)[C@@H]1O [N6-CYCLOPENTYLADENOSINE] |  | 331 |  | 
